The text below walks through data of patent US10392630B2, “Plants having increased tolerance to herbicides” (BASF AGRO B.V., priority 2013, dated 2019).

Read-outs that look alike come from different tables or passages of the source.

Assay [1] relates to Alopecurus wildtype PPO (ALOMY), PPO herbicide sensitive PPO2, SEQ ID NO 2. The assay can be described thus: PPO enzyme assay, dose-response (fluorescence), wildtype Alopecurus PPO2. Type of assay: biochemical, Alopecurus myosuroides. To be noted: Table 3b; SEQ ID NO 2, WT.
For assay [2], the target named is Alopecurus mutant PPO (ALOMY), SEQ ID NO 2 with amino acid substitution. The assay can be described thus: PPO enzyme assay, dose-response (fluorescence), mutated Alopecurus PPO2. The format is biochemical, Alopecurus myosuroides.

For the compound `C#CCN1C(=O)C(F)(F)Oc2cc(F)c(-n3c(=O)cc(C(F)(F)F)n(C)c3=O)cc21` [1-methyl-6-(trifluoromethyl)-3-(2,2,7-trifluoro-3-oxo-4-prop-2-ynyl-1,4-benzoxazin-6-yl)pyrimidine-2,4-dione], in assay [1], the IC50 came out at 0.189 nM.
As to `COC(Oc1ccccc1Oc1cc(-n2c(=O)cc(C(F)(F)F)n(C)c2=O)c(F)cc1Cl)C(=O)OCC(F)F` (stereo not drawn) [2,2-difluoroethyl 2-[2-[2-chloro-4-fluoro-5-[3-methyl-2,6-dioxo-4-(trifluoromethyl)pyrimidin-1-yl]phenoxy]phenoxy]-2-methoxy-acetate], in assay [1], the IC50 amounted to 0.335 nM.
Still for that read-out and setting: with `C#CCN1C(=O)C(F)(F)Oc2cc(F)c(N3C(=O)C4=C(CCCC4)C3=O)cc21` [2-(2,2,7-trifluoro-3-oxo-4-prop-2-ynyl-1,4-benzoxazin-6-yl)-4,5,6,7-tetrahydroisoindole-1,3-dione] the figure was 0.243 nM; with `CCOCCOC(=O)C(OC)Oc1ccccc1Oc1cc(-n2c(=O)cc(C(F)(F)F)n(C)c2=O)c(F)cc1Cl` (stereo not drawn) [2-ethoxyethyl 2-[2-[2-chloro-4-fluoro-5-[3-methyl-2,6-dioxo-4-(trifluoromethyl)pyrimidin-1-yl]phenoxy]phenoxy]-2-methoxy-acetate], 0.816 nM; with `COC(Oc1ccccc1Oc1cc(-n2c(=O)cc(C(F)(F)F)n(C)c2=O)c(F)cc1Cl)C(=O)OCc1ccncc1` (stereo not drawn) [4-pyridylmethyl 2-[2-[2-chloro-4-fluoro-5-[3-methyl-2,6-dioxo-4-(trifluoromethyl)pyrimidin-1-yl]phenoxy]phenoxy]-2-methoxy-acetate], 0.671 nM.
In assay [1], `COC(Oc1ccccc1Oc1cc(-n2c(=O)cc(C(F)(F)F)n(C)c2=O)c(F)cc1Cl)C(=O)OCC1(C)CC1` (stereo not drawn) [(1-methylcyclopropyl)methyl 2-[2-[2-chloro-4-fluoro-5-[3-methyl-2,6-dioxo-4-(trifluoromethyl)pyrimidin-1-yl]phenoxy]phenoxy]-2-methoxy-acetate] displayed an IC50 of 0.751 nM.
On to `O=C(O)c1cc(Oc2ccc(C(F)(F)F)cc2Cl)ccc1[N+](=O)[O-]` [ACIFLUORFEN, 5-(2-CHLORO-4-TRIFLUOROMETHYL-PHENOXY)-2-NITRO-BENZOIC ACID], for which the IC50 is 1140 nM in assay [1] and ≥ 10000 nM in assay [2].
In assay [1], `C=CCOC(=O)C(C)(C)OC(=O)c1cc(-n2c(=O)cc(C(F)(F)F)n(C)c2=O)ccc1Cl` [BUTAFENACIL] displayed an IC50 of 0.0131 nM.
`CCOC(=O)C(Cl)Cc1cc(-n2nc(C)n(C(F)F)c2=O)c(F)cc1Cl` (stereo not drawn) [CARFENTRAZONE-ETHYL] yielded an IC50 in assay [1] of 1.47 nM.
`CCOC(=O)/C(Cl)=C/c1cc(N2C(=O)C3=C(CCCC3)C2=O)ccc1Cl` [CINIDON-ETHYL, ethyl (Z)-2-chloro-3-[2-chloro-5-(1,3-dioxo-4,5,6,7-tetrahydroisoindol-2-yl)phenyl]prop-2-enoate]: in assay [1], the IC50 came out at 81.2 nM.
Still for that read-out and setting: then `C#CCN1C(=O)COc2cc(F)c(N3C(=O)C4=C(CCCC4)C3=O)cc21` [FLUMIOXAZIN, 2-(7-fluoro-3-oxo-4-prop-2-ynyl-1,4-benzoxazin-6-yl)-4,5,6,7-tetrahydroisoindole-1,3-dione], with 0.144 nM; and `CS(=O)(=O)NC(=O)c1cc(Oc2ccc(C(F)(F)F)cc2Cl)ccc1[N+](=O)[O-]` [FOMESAFEN], with 90.3 nM.
With `CCOC(=O)C(C)OC(=O)c1cc(Oc2ccc(C(F)(F)F)cc2Cl)ccc1[N+](=O)[O-]` (stereo not drawn) [LACTOFEN, (2-ethoxy-1-methyl-2-oxo-ethyl) 5-[2-chloro-4-(trifluoromethyl)phenoxy]-2-nitro-benzoate], in assay [1], the midpoint of inhibition, the IC50, lay at 18.7 nM.
In turn, `CCOc1cc(Oc2ccc(C(F)(F)F)cc2Cl)ccc1[N+](=O)[O-]` [OXIFLUORFEN, 2-CHLORO-1-(3-ETHOXY-4-NITROPHENOXY)-4-(TRIFLUOROMETHYL)BENZENE] yielded an IC50 in assay [1] of 8.24 nM.
As to `CCOC(=O)COc1ncccc1Oc1cc(-n2c(=O)cc(C(F)(F)F)n(C)c2=O)c(F)cc1Cl` [S-3100, ethyl 2-[[3-[2-chloro-4-fluoro-5-[3-methyl-2,6-dioxo-4-(trifluoromethyl)pyrimidin-1-yl]phenoxy]-2-pyridyl]oxy]acetate], the IC50 in assay [1] worked out at 0.0645 nM; in assay [2], 950 nM; in assay [2] (listed as S-3101) it was 0.552 nM; in assay [2] (listed as S-3102), 2.37 nM; in assay [2] (listed as S-3103), 992 nM; in assay [2] (listed as S-3104), 12.1 nM.
Turning to `COC(Oc1ccccc1Oc1cc(-n2c(=O)cc(C(F)(F)F)n(C)c2=O)c(F)cc1Cl)C(=O)OC1CCCCC1` (stereo not drawn) [cyclohexyl 2-[2-[2-chloro-4-fluoro-5-[3-methyl-2,6-dioxo-4-(trifluoromethyl)pyrimidin-1-yl]phenoxy]phenoxy]-2-methoxy-acetate], the IC50 in assay [1] is 2.99 nM.
`COC(=O)C(OC)Oc1ccccc1Oc1cc(-n2c(=O)cc(C(F)(F)F)n(C)c2=O)c(F)cc1Cl` (stereo not drawn) [methyl 2-[2-[2-chloro-4-fluoro-5-[3-methyl-2,6-dioxo-4-(trifluoromethyl)pyrimidin-1-yl]phenoxy]phenoxy]-2-methoxy-acetate] registered an IC50 in assay [1] of 0.194 nM.
In assay [1], OXADIARGYL had an IC50 of 1.17 nM.
